Laboratory results as given in ChEMBL document CHEMBL5661983, “The selective anaplastic lymphoma receptor tyrosine kinase inhibitor ASP3026 induces tumor regression and prolongs survival in non-small cell lung cancer model mice” (Mol Cancer Ther, 2014).
Activity calls are given as the source filed them. The calls are words filed in the database; no cut-off is given here.

Experiments:
NCI-H2228 [1] = test: Antitumor activity against human NCI-H2228 cells xenografted in NOD.CB17-Prkdcscid/J mouse assessed as increase in tumor regression at 12 mg/kg, iv administered daily for 5 days; type: functional, organism-based; settings: time 5.0 day
NCI-H2228 [2] = test: Antitumor activity against human NCI-H2228 cells xenografted in NOD.CB17-Prkdcscid/J mouse assessed as reduction in tumor volume at 50 mg/kg, iv administered daily for 5 days; type: functional, organism-based; settings: time 5.0 day
[3] = Toxicity in human NCI-H2228 cell xenografted NOD.CB17-Prkdcscid/J mouse assessed as body weight loss at 50 mg/kg, iv administered once daily for 5 days; type: organism-based; settings: in vivo, 120 h, time 5 day

| SMILES | Activity (NCI-H2228 [1]) | Activity (NCI-H2228 [2]) | Activity [3] |
| --- | --- | --- | --- |
| CC(=O)O[C@H]1C(=O)[C@@]2(C)[C@H]([C@H](OC(=O)c3ccccc3)[C@]3(O)C[C@H](OC(=O)[C@H](O)[C@@H](NC(=O)c4ccccc4)c4ccccc4)C(C)=C1C3(C)C)[C@]1(OC(C)=O)CO[C@@H]1C[C@@H]2O | Active |  |  |
| Nc1nc2[nH]cc(CCc3ccc(C(=O)N[C@@H](CCC(=O)O)C(=O)O)cc3)c2c(=O)[nH]1 [PEMETREXED] |  | Active | Toxic |
